Assay results taken from the supplement of paper PMC10307832.

Columns and labels:
Test in all cases: relative viability (nuclei count vs DMSO), 5 days (fraction); higher = more cells survive
17-AAG + Linsitinib = compound: C=CCNC1=C2C[C@@H](C)C[C@H](OC)[C@H](O)[C@@H](C)/C=C(\C)[C@H](OC(N)=O)[C@@H](OC)/C=C\C=C(/C)C(=O)NC(=CC1=O)C2=O [17-AAG] + C[C@]1(O)C[C@@H](c2nc(-c3ccc4ccc(-c5ccccc5)nc4c3)c3c(N)nccn32)C1 [Linsitinib] (partner 1 µM)
Outline: (§1)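 Lung cancer cell lines in 1536-well plates were dosed by pin tool the day after seeding, either with one drug alone or with a fixed anchor-drug dose plus five library-drug doses (not always all listed) in √10 steps. After 5 days, cells were fixed and their nuclei stained in one step (final 0.05% Triton X-100, 1% formaldehyde, 1 ug/ml Hoechst), then counted on 4× images. Relative viability is the nuclei count in treated wells divided by that in vehicle wells. Values are medians of duplicate plates.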

17-AAG + Pemetrexed = compound: C=CCNC1=C2C[C@@H](C)C[C@H](OC)[C@H](O)[C@@H](C)/C=C(\C)[C@H](OC(N)=O)[C@@H](OC)/C=C\C=C(/C)C(=O)NC(=CC1=O)C2=O [17-AAG] + Nc1nc2[nH]cc(CCc3ccc(C(=O)N[C@@H](CCC(=O)O)C(=O)O)cc3)c2c(=O)[nH]1 [Pemetrexed] (partner 0.2 µM)
Outline: as §1

17-AAG + Vorinostat = compound: C=CCNC1=C2C[C@@H](C)C[C@H](OC)[C@H](O)[C@@H](C)/C=C(\C)[C@H](OC(N)=O)[C@@H](OC)/C=C\C=C(/C)C(=O)NC(=CC1=O)C2=O [17-AAG] + O=C(CCCCCCC(=O)Nc1ccccc1)NO [Vorinostat] (partner 1 µM)
Outline: as §1

17-AAG + Olaparib = compound: C=CCNC1=C2C[C@@H](C)C[C@H](OC)[C@H](O)[C@@H](C)/C=C(\C)[C@H](OC(N)=O)[C@@H](OC)/C=C\C=C(/C)C(=O)NC(=CC1=O)C2=O [17-AAG] + O=C(c1cc(Cc2n[nH]c(=O)c3ccccc23)ccc1F)N1CCN(C(=O)C2CC2)CC1 [Olaparib] (partner 8 µM)
Outline: as §1

Cell Line | relative viability (17-AAG + Linsitinib; first compound 0.00128 µM) | relative viability (17-AAG + Linsitinib; first compound 0.004048 µM) | relative viability (17-AAG + Linsitinib; first compound 0.0128 µM) | relative viability (17-AAG + Linsitinib; first compound 0.04048 µM) | relative viability (17-AAG + Linsitinib; first compound 0.128 µM) | relative viability (17-AAG + Pemetrexed; first compound 0.00128 µM) | relative viability (17-AAG + Pemetrexed; first compound 0.004048 µM) | relative viability (17-AAG + Pemetrexed; first compound 0.0128 µM) | relative viability (17-AAG + Pemetrexed; first compound 0.04048 µM) | relative viability (17-AAG + Pemetrexed; first compound 0.128 µM) | relative viability (17-AAG + Vorinostat; first compound 0.00128 µM) | relative viability (17-AAG + Vorinostat; first compound 0.004048 µM) | relative viability (17-AAG + Vorinostat; first compound 0.0128 µM) | relative viability (17-AAG + Vorinostat; first compound 0.04048 µM) | relative viability (17-AAG + Vorinostat; first compound 0.128 µM) | relative viability (17-AAG + Olaparib; first compound 0.00128 µM) | relative viability (17-AAG + Olaparib; first compound 0.004048 µM) | relative viability (17-AAG + Olaparib; first compound 0.0128 µM) | relative viability (17-AAG + Olaparib; first compound 0.04048 µM) | relative viability (17-AAG + Olaparib; first compound 0.128 µM)
NCI-H661 | 0.558 | 0.569 | 0.516 | 0.45 | 0.259 | 0.883 | 0.926 | 0.861 | 0.367 | 0.31 | 0.785 | 0.791 | 0.707 | 0.441 | 0.31 | 0.804 | 0.716 | 0.529 | 0.333 | 0.253
NCI-H838 | 0.942 | 0.97 | 0.756 | 0.17 | 0.142 | 0.258 | 0.313 | 0.208 | 0.133 | 0.154 | 0.759 | 0.779 | 0.213 | 0.168 | 0.169 | 0.768 | 0.591 | 0.139 | 0.128 | 0.133
NCI-H1355 | 0.946 | 0.747 | 0.776 | 0.725 | 0.286 | 1 | 0.993 | 1.06 | 0.623 | 0.164 | 0.639 | 0.692 | 0.607 | 0.228 | 0.141 | 0.749 | 0.718 | 0.459 | 0.2 | 0.136
NCI-H1395 | 1.12 | 1.1 | 0.705 | 0.469 | 0.383 | 0.86 | 0.938 | 0.494 | 0.349 | 0.354 | 0.626 | 0.607 | 0.415 | 0.366 | 0.368 | 0.452 | 0.458 | 0.359 | 0.37 | 0.418
NCI-H1437 | 0.995 | 0.788 | 0.787 | 0.128 | 0.112 | 0.348 | 0.37 | 0.246 | 0.214 | 0.154 | 0.83 | 0.77 | 0.731 | 0.328 | 0.235 | 0.626 | 0.609 | 0.285 | 0.194 | 0.173
NCI-H1651 | 1.09 | 1.01 | 0.975 | 0.227 | 0.177 | 0.635 | 0.605 | 0.585 | 0.536 | 0.173 | 0.538 | 0.536 | 0.545 | 0.578 | 0.492 | 0.173 | 0.19 | 0.21 | 0.153 | 0.159
NCI-H1666 | 0.764 | 0.554 | 0.27 | 0.253 | 0.224 | 0.921 | 0.877 | 0.908 | 0.515 | 0.517 | 1.1 | 1.06 | 1.02 | 0.498 | 0.482 | 0.756 | 0.721 | 0.712 | 0.526 | 0.556
NCI-H1734 | 0.87 | 0.838 | 0.878 | 0.308 | 0.18 | 0.4 | 0.474 | 0.475 | 0.261 | 0.161 | 0.77 | 0.851 | 0.574 | 0.271 | 0.132 | 0.558 | 0.686 | 0.59 | 0.255 | 0.119
NCI-H1755 | 1.03 | 1.01 | 0.934 | 0.825 | 0.39 | 0.47 | 0.404 | 0.407 | 0.355 | 0.214 | 0.815 | 0.735 | 0.712 | 0.589 | 0.243 | 0.873 | 0.849 | 0.903 | 0.712 | 0.238
NCI-H1793 | 0.824 | 0.712 | 0.51 | 0.236 | 0.153 | 0.837 | 0.513 | 0.213 | 0.16 | 0.124 | 0.687 | 0.656 | 0.283 | 0.189 | 0.148 | 0.903 | 0.594 | 0.184 | 0.198 | 0.141
NCI-H1915 | 1.05 | 1.08 | 1.14 | 1.07 | 0.83 | 0.521 | 0.462 | 0.422 | 0.191 | 0.057 | 0.447 | 0.465 | 0.45 | 0.167 | 0.0637 | 0.263 | 0.268 | 0.233 | 0.129 | 0.0621
NCI-H1944 | 1.25 | 1.22 | 1.16 | 0.872 | 0.319 | 0.601 | 0.561 | 0.357 | 0.266 | 0.131 | 0.486 | 0.506 | 0.397 | 0.257 | 0.134 | 0.4 | 0.413 | 0.383 | 0.335 | 0.137
NCI-H1975 | 1.03 | 0.725 | 0.31 | 0.164 | 0.139 | 0.299 | 0.338 | 0.191 | 0.162 | 0.156 | 0.716 | 0.597 | 0.311 | 0.157 | 0.152 | 0.745 | 0.765 | 0.158 | 0.128 | 0.121
NCI-H1993 | 0.764 | 0.718 | 0.711 | 0.573 | 0.5 | 0.65 | 0.649 | 0.437 | 0.298 | 0.323 | 0.83 | 0.73 | 0.472 | 0.201 | 0.273 | 1.16 | 0.949 | 0.98 | 0.37 | 0.299
NCI-H2009 | 1.14 | 1.2 | 1.01 | 0.775 | 0.328 | 1.01 | 1.03 | 1.04 | 0.86 | 0.166 | 0.681 | 0.724 | 0.735 | 0.699 | 0.276 | 0.699 | 0.712 | 0.7 | 0.295 | 0.0798
